Data taken from patent US10117821B2, “Topical lightening composition and methods of use thereof” (Avon Products, Inc., priority 2013, dated 2018).
Marks after values point to notes of the source that are not given here.

How the values were obtained:
B16 mouse melanoma cells = test: Melanin synthesis in B16 melanoma cell assay, normalized to MTT cell viability; type: cell-based; details: 7 days, vs water vehicle control, 6 replicates
Protocol: The effects of 3,3′-thiodipropanoic acid and Kojic acid on melanin levels were determined by performing assays using B16 melanoma cells. These cells are known to constitutively produce melanin and are a commonly utilized and accepted model system for monitoring the inhibition of melanin synthesis.
The B16 mouse melanoma cells were seeded (ATCC, cat. #: CRL-6475) into 96-well tissue culture-treated plates (BD Falcon) and treated with test actives or controls in DMEM without phenol red (Mediatech; cat. #: 17-205-CV). The cells were examined for their ability to modulate pigment formation. […] Tests were performed in 6 replicates each. Following the treatment period, the level of pigment produced or melanin synthesized was quantified by reading the absorbance at 540 nm using a standard microplate reader (Tecan Group Ltd.).
After quantifying the amount of melanin, cell viability was determined using the MTT conversion method. […] After quantifying the amount of melanin pigment produced, the cells were exposed to MTT dye solution (1 mg/ml) for two to three hours. […] MTT dye uptake and conversion by viable cells were determined by measuring the extracted formazan at 570 nm using a microplate reader. Total pigmentation was calculated, normalized to cell viability values and expressed as the average percent change in melanin level relative to control of sextuplicates performed.

[1] = test system: MELANODERM™ (MEL-300-B) human skin model; test: Melanin levels in MELANODERM 3D human skin model; type: cell-based; details: vs water vehicle control
Protocol: The effect of 3,3′-thiodipropanoic acid or Thiodipropionic acid (TDPA) and Nicotinamide on melanin levels was investigated using a MELANODERM™ (MEL-300-B, MatTek Corp., Ashland, Mass.) human skin model. MELANODERM™ is a viable reconstituted three-dimensional human skin equivalent containing melanocytes derived from African-American donors. Tissues were maintained in culture medium EPI-100-NMM-113 at 37° C. as recommended by the manufacturer.
TDPA was dissolved in water to a final concentration of 1.0% (w/v). Nicotinamide was dissolved in the culture media to a final concentration of 0.1% (w/v). 25 μl of the TDPA solution was applied topically to the MELANODERM™ tissue while 0.1% Nicotinamide containing culture medium was added on days 1, 2, 4, 7, 9, and 11. Control tissues were treated with water vehicle only. The tissue was treated with both active lightening agents at “saturated concentration,” which is the highest concentration of treatment that is not toxic to the system.
On Day 14, tissues were collected and homogenized in a buffer containing 1% SDS, 50 mM EDTA, and 10 mM Tris, pH 6.8. To each homogenate, protease K (5 mg/ml) was added and incubated overnight at 45° C. Additional protease K was added and incubated for 4 hours at 45° C., followed by the addition of 0.5M sodium carbonate and 30% H2O2 and incubation at 80° C. for 30 minutes. The samples were cooled down to room temperature, and extracted with chloroform/methanol (2:1). After centrifugation at 10,000 g for 10 minutes, absorbance of the top phase was measured at 450 nm. Percent change in melanin levels in treated tissue was calculated relative to control.
The effect of TDPA and Soybean Trypsin Inhibitor (STI) on melanin levels was investigated using the MELANODERM™ human skin model according to the methods described in Example 1.

## O=c1cc(CO)occ1O [Kojic Acid, Kojic acid (5-hydroxy-4-pyran-4-one-2-methyl), reference compound]
B16 mouse melanoma cells; 0.01% final concentration
  % CHANGE IN MELANIN: −47.6%*

## NC(=O)c1cccnc1 [Nicotinamide, nicotinamide (3-pyridinecarboxamide), reference compound]
[1]; Example 1, 0.1% (w/v) in culture medium, Day 14, average of three tissues
  % CHANGE IN MELANIN: −16%*

## O=C(O)CCSCCC(=O)O [TDPA, 3,3′-thiodipropionic acid]
[1]; Example 1, 1% (w/v) in water, 25 μl topical, Day 14, average of three tissues
  % CHANGE IN MELANIN: −10%*
[1]; Example 3, 1%, methods of Example 1
  % CHANGE IN MELANIN: −9.1%
B16 mouse melanoma cells; 0.1% final concentration
  % CHANGE IN MELANIN: −27.4%*

B1: STI: Soybean Trypsin Inhibitor (STI), a known melanosome transfer inhibitor (protein, UniProt P01070 25-205, looked up)
Trypsin inhibitor A: DFVLDNEGNPLENGGTYYILSDITAFGGIRAAPTGNERCPLTVVQSRNELDKGIGTIISSPYRIRFIAEGHPLSLKFDSFAVIMLCVGIPTEWSVVEDLPEGPAVKIGENKDAMDGWFRLERVSDDEFNNYKLVFCPQQAEDDKCGDIGISIDHDDGTRRLVVSKNKPLVVQFQKLDKESL
[1]; Example 3, 0.1%, methods of Example 1
  % CHANGE IN MELANIN: −8.9%
